According to patent publication US8653086B2, “Naphthamides as anticancer agents” (Oregon Health & Science University, priority 2008, dated 2014):

Assays:
HeLa cells [1] = assay: HeLa cell growth inhibition, MTT (Example 2); type: cell-based; conditions: Homo sapiens, 72 h, mean ± SD of at least two measurements in duplicates unless noted
Description: (§1) HeLa cells (human cervical cancer cells) were obtained from American Type Culture Collection (ATCC) and maintained in Dulbecco's modified Eagle medium (DMEM, Invitrogen, Carlsbad, Calif.) supplemented with 10% (v/v) fetal calf serum (Sigma, St. Louis, Mo.), 10 μg/mL penicillin and 10 μg/mL streptomycin (Invitrogen, Carlsbad, Calif.) at 37° C. under 5% CO2. HeLa cells (2,000 cells/well) were plated in 96-well plates the day before experiment. On the day of experiment, different concentrations of the drugs (final concentration 10^−8-10^−4 M) in duplicates were added to the cells and the cells were further incubated for 72 h. Then, the number of live cells was quantified by 3-(4,5-dimethyl-2-thiazolyl)-2,5-diphenyl-2H-tetrazolium bromide (MIT reagent, Sigma, St. Louis, Mo.).
(§2) The amount of reduced MTT formazan generated by live cells was determined by its absorbance at 570 nm after subtracting the background absorbance at 690 nm. The percent of cell growth was expressed as (A570(treated)−A570(initial))/(A570(vehicle treated)−A570(initial))×100, where A570(initial) represents initial cell population when drugs are added. The GI50 were derived from non-linear regression analysis of the dose-response curve using Prism 4.0 (GraphPad).

A549 cells [2] = assay: A549 cell growth inhibition, MTT (Example 2); type: cell-based; conditions: Homo sapiens, 72 h, mean ± SD of at least two measurements in duplicates unless noted
Description: as §1
(§3) Following the same procedure, identical experiments were performed using, A549 cells (human lung cancer cells) and MCF-7 cells (human breast cancer cells).
as §2

MCF-7 cells [3] = assay: MCF-7 cell growth inhibition, MTT (Example 2); type: cell-based; conditions: Homo sapiens, MCF7, 72 h, mean ± SD of at least two measurements in duplicates unless noted
Description: as §1, §3, §2

HeLa cells [4] = assay: HeLa cancer cell growth inhibition, MTT (Example 6); type: cell-based; conditions: Homo sapiens, 72-h incubation
Description: (§4) HeLa, A549, and MCF-7 cells, in a 96-well plate (1.0×10^5/well) were treated with different concentrations of the compounds for 72 h. Then the number of cells was quantified by incubating cells with MTT reagent (Sigma, 50 μg/mL) for 3 h. The reduced formazan product was solubilized in DMSO to be measured spectrophotometrically at 570 nm.

A549 cells [5] = assay: A549 cancer cell growth inhibition, MTT (Example 6); type: cell-based; conditions: Homo sapiens, 72-h incubation
Description: as §4

MCF-7 cells [6] = assay: MCF-7 cancer cell growth inhibition, MTT (Example 6); type: cell-based; conditions: Homo sapiens, MCF7, 72-h incubation
Description: as §4

primary rat neurons = conditions: E18 rat neurons, 48 h; naphthols up to 10 μM; CPT positive control
Description: E18 rat neurons were isolated from Sprague-Dawley rats at 18 days after gestation. The isolated neurons were plated into a 6-well plate coated with poly-D-lysine. On day 5 after plating the neurons, different compounds of indicated concentrations were added (in triplicates) and incubated with the neurons for 48 h. Then the neurons were harvested and the number of live neurons was counted with a hemacytometer after staining with trypan blue. Data were presented as mean±SD.
CREB is a pleiotrophic factor involved in many different cellular processes including neuronal survival. The possibility of neuronal cell death might be a concern for CREB inhibitors in the future clinical applications if they could cross the blood brain barrier. Therefore, the toxicity of naphthol AS-E phosphate (i) or its active form, naphthol AS-E (ii), to primary rat neurons was investigated. Isolated E18 rat neurons were treated with increasing concentrations of naphthol AS-E phosphate (i) or naphthol AS-E (ii) for 48 h. […] At the end of the treatment, the neurons were collected and the number of live neurons were counted using trypan blue exclusion assay (FIG. 3).

[7] = Maximum tolerated dose in nude mice; type: in vivo; conditions: for tolerability: ten days
Description: The maximum tolerated dose (MTD) of compound 4 and compound 7 was evaluated in nude mice.
In this study 7 groups were established, each with three mice per group. 10 μl/g of a mixture of 10 ml of DMSO and 10 ml sterile saline was administered per day to group I, the control group; compound 4 was administered intravenously at dose levels of 10, 25, and 50 mg/kg and a dose volume of 10 μl/g per day to groups 2-4 respectively; and compound 7 was administered intravenously at dose levels of 10, 25, and 50 mg/kg and a dose volume of 10 μl/g per day to groups 5-7 respectively. The study was run for ten days.
Animals were monitored individually up to 7 days after final treatment. Daily general health observations included animal mortality, appearance, spontaneous activity, body posture, and food and water intake. Lesions and any other adverse reactions were recorded.

[8] = tested on: CREB-mediated gene transcription; assay: CREB renilla luciferase reporter assay in HEK293T cells; type: cell-based; conditions: Homo sapiens, HEK-293T, forskolin 10 μM, read-out: CREB transcription inhibition IC50
Description: HEK293T cells in a 10-cm plate were transfected with pCRE-RLuc (6.0 μg) with Lipofectamine™ 2000 (Invitrogen, Carlsbad, Calif.) according to manufacturer's protocol. After 3 h, the transfected cells were collected and replated into a 96-well plate (4×10^4 cells/well). The cells were allowed to attach to the bottom of the wells for overnight, when compounds of different concentrations were added to the cells. Forskolin (final concentration of 10 μM, Alexis Biochemicals, San Diego, Calif.) was added 30 min after the addition of the compounds. The cells were then incubated at 37° C. for 4.5 h and the media were removed. The cells were then lysed in renilla luciferase lysis buffer (Promega, Madison, Wis.). To measure luciferase activity, five μL of the lysate was combined with 30 μL of coelenterazine (Nanolight, Pinetop, Ariz.) solution in PBS (10 μg/mL). The sample protein concentration was determined by Dye Reagent Concentrate (Bio-Rad, Hercules, Calif.). The luciferase activity was normalized to protein content in each well and expressed as RLU/μg protein.

KIX-KID interaction = molecular target: T1, KIX-KID interaction (Homo sapiens, UniProt Q92793); assay: In vitro renilla luciferase complementation assay; type: biochemical; conditions: 4° C., 24 h, read-out: KIX-KID interaction inhibition IC50
T1 construct: RLucC-KIX (15 ng) and KID-RLucN-containing cell lysates; made in house
Description: RLucC-KIX (15 ng) and KID-RLucN-containing cell lysates (0.5 mg) were mixed together in renilla luciferase lysis buffer (Promega, Madison, Wis.) in the presence of different concentrations of compounds. The final volume of the incubation mixture is 30 μL. The mixture was incubated at 4° C. for 24 h. Then renilla luciferase activity was measured by combining 5 μL of incubation mixture with 30 μL of coelenterazine solution in PBS (pH 7.4, 10 μg/mL).

T1 sequence (Q92793 587-666 limits assumed): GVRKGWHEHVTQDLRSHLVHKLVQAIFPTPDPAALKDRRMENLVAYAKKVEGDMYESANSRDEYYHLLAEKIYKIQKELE

Row | Structure (SMILES) | GI50 (HeLa cells [1]) [µM] | GI50 (A549 cells [2]) [µM] | GI50 (MCF-7 cells [3]) [µM] | other results
1 | NCCCOc1cc2ccccc2cc1C(=O)Nc1ccc(Cl)cc1 | 1.47 ± 0.42 | 3.42 ± 0.43 | 0.84 ± 0.18 | –
2 | O=C(Nc1ccc(F)cc1)c1cc2ccccc2cc1O | 2.06 ± 0.31 | 6.78 ± 1.32 | 2.34 ± 0.51 | –
3 | O=C(Nc1ccc(Br)cc1)c1cc2ccccc2cc1O | 2.12 ± 0.007 | 3.98 ± 0.65 | 1.83 ± 0.7 | –
4 | O=C(Nc1ccc(I)cc1)c1cc2ccccc2cc1O | 3.74 ± 0.81 | 5.45 ± 0.89 | 9.76 ± 6.31 | –
5 | O=C(Nc1ccc(C(F)(F)F)cc1)c1cc2ccccc2cc1O | 2.4 ± 0.36 | 4.15 ± 0.5 | 3.62 ± 2.56 | –
6 | O=C(Nc1ccc([N+](=O)[O-])cc1)c1cc2ccccc2cc1O | 2.94 ± 0.7 | 3.28 ± 0.31 | 1.5 ± 0.16 | –
7 | Nc1ccc(NC(=O)c2cc3ccccc3cc2O)cc1 | 67.2 ± 46.3 | 51.6 ± 11.9 | 28 ± 4.63 | –
8 | O=C(Nc1ccccc1)c1cc2ccccc2cc1O | 26.9 | 56.9 ± 7.75 | 4.87 ± 1.27 | –
9 | O=C(Nc1ccc(O)cc1)c1cc2ccccc2cc1O | 42.3 ± 6.7 | 28.1 | 6.8 ± 6.34 | –
10 | COc1ccc(NC(=O)c2cc3ccccc3cc2O)cc1 | 8.32 ± 0.55 | 85.7 ± 8.74 | 6.55 ± 2.28 | –
11 | O=C(Nc1ccc(F)c(F)c1)c1cc2ccccc2cc1O | 2.18 ± 0.17 | 3.57 ± 0.23 | 2.09 ± 0.82 | –
12 | O=C(Nc1ccc(F)c(Cl)c1)c1cc2ccccc2cc1O | 2.44 ± 0.56 | 3.76 ± 0.31 | 5.21 ± 4.92 | –
13 | CN(C(=O)c1cc2ccccc2cc1O)c1ccc(Cl)cc1 | 12.9 ± 4.34 | 29.5 ± 5.27 | 13.6 ± 4.9 | –
14 | COc1cc2ccccc2cc1C(=O)Nc1ccc(Cl)cc1 | 5.2 ± 0.61 | 62 ± 15.5 | 24.8 ± 0.94 | –
15 | O=C(Nc1ccccn1)c1cc2ccccc2cc1O | 11.5 ± 8.9 | 75.8 ± 23.1 | 6.25 ± 5.89 | –
16 | O=C(Nc1ccncc1)c1cc2ccccc2cc1O | 6.14 ± 3.03 | 25 ± 10.7 | 15.8 ± 5.29 | –
17 | O=C(Nc1cnccn1)c1cc2ccccc2cc1O | 12.6 ± 12.1 | 32.2 ± 2.88 | 12.7 ± 13.2 | –
18 | COc1cc2ccccc2cc1C(=O)Nc1ccc(Cl)cc1OC(=O)c1cc2ccccc2cc1OCCCN | – | – | – | GI50 (HeLa cells [4]): 2.33 µM; GI50 (A549 cells [5]): 12.9 µM; GI50 (MCF-7 cells [6]): 19.4 µM
19 | COc1cc2ccccc2cc1C(=O)Oc1cc(Cl)ccc1NC(=O)c1cc2ccccc2cc1OCCCN | – | – | – | GI50 (HeLa cells [4]): 3.12 µM; GI50 (A549 cells [5]): 12.9 µM; GI50 (MCF-7 cells [6]): 29.4 µM
20 | CC[C@@]1(O)C(=O)OCc2c1cc1n(c2=O)Cc2cc3ccccc3nc2-1 [CPT, camptothecin] | – | – | – | neuronal cell death (primary rat neurons): killed most of the neurons
21 | Cl.Cl.NCCCOc1cc(Cl)ccc1NC(=O)c1cc2ccccc2cc1OCCCN [Compound 4, 3-(3-Aminopropoxyl)-N-(2-(3-aminopropoxy)-4-chlorophenyl)-2-naphthamide dihydrochloride] | – | – | – | tolerability ([7]; 10 mg/kg per day intravenously): tolerated very well; tolerability ([7]; 25 mg/kg per day intravenously): tolerated very well; tolerability ([7]; 50 mg/kg per day intravenously): minor toxicity; body weight loss ([7]; 50 mg/kg, two of three animals at day 5 and day 6, recovery from day 7): 10-20%
22 | NCCCOc1cc2ccccc2cc1C(=O)Nc1ccc(Cl)cc1OC(=O)c1cc2ccccc2cc1OCCCN [Compound 7] | – | – | – | tolerability ([7]; 10 mg/kg per day intravenously): tolerated very well; tolerability ([7]; 25 mg/kg per day intravenously): tolerated very well; local effect at injection site ([7]; 50 mg/kg intravenously): severe irritative effect on tail skin; tolerability ([7]; 50 mg/kg per day intravenously): tolerated very well
23 | O=C(Nc1ccc(Cl)cc1)c1cc2ccccc2cc1O [drawing 32] | 2.52 ± 0.77 | 2.88 ± 0.35 | 2.76 ± 0.35 | –
24 | O=C(Nc1ccc(Cl)cc1)c1cc2ccccc2cc1OP(=O)(O)O [drawing 33] | 2.53 ± 0.58 | 1.94 | 1.93 | –
25 | COc1cc2ccccc2cc1C(=O)Nc1ccc(Cl)cc1OC(=O)c1cc2ccccc2cc1OC [drawing 35] | 0.27 ± 0.19 | 5.25 ± 0.75 | 2.96 ± 0.66 | –
26 | NCCCOc1cc(Cl)ccc1NC(=O)c1cc2ccccc2cc1OCCCN [drawing 36] | 0.48 ± 0.35 | 2.57 ± 0.41 | 1.65 ± 0.42 | –
27 | O=C(Nc1ccc(Cl)cc1)c1cc2ccccc2cc1O [drawing 53] | – | – | – | GI50 (HeLa cells [4]): 2.97 ± 0.74 µM; GI50 (A549 cells [5]): 4.58 ± 1.52 µM; GI50 (MCF-7 cells [6]): 2.56 ± 0.45 µM; IC50 [8]: 2.2 µM; IC50 (KIX-KID interaction): 2.41 µM
28 | NCCCOc1cc(Cl)ccc1NC(=O)c1cc2ccccc2cc1OCCCN [drawing 54] | – | – | – | GI50 (HeLa cells [4]): 0.71 ± 0.21 µM; GI50 (A549 cells [5]): 1.84 ± 0.11 µM; GI50 (MCF-7 cells [6]): 1.69 ± 0.39 µM; IC50 [8]: 22.9 µM; IC50 (KIX-KID interaction): 14.7 µM
29 | COc1cc2ccccc2cc1C(=O)Nc1ccc(Cl)cc1OC(=O)c1cc2ccccc2cc1OC [drawing 55] | – | – | – | GI50 (HeLa cells [4]): 0.33 ± 0.07 µM; GI50 (A549 cells [5]): 8.78 ± 2.55 µM; GI50 (MCF-7 cells [6]): 3.38 ± 0.49 µM; IC50 [8]: 1.14 µM; IC50 (KIX-KID interaction): 0.25 µM
30 | NCCCOc1cc2ccccc2cc1C(=O)Nc1ccc(Cl)cc1OC(=O)c1cc2ccccc2cc1OCCCN [drawing 56] | – | – | – | GI50 (HeLa cells [4]): 0.29 ± 0.05 µM; GI50 (A549 cells [5]): 0.59 ± 0.02 µM; GI50 (MCF-7 cells [6]): 0.42 ± 0.15 µM; IC50 [8]: 2.74 µM; IC50 (KIX-KID interaction): 7.08 µM
